According to patent US5180729A, “Use of sigma receptor antagonists for treatment of cocaine abuse” (Du Pont Merck Pharmaceutical Company, priority 1991, dated 1993):

System: cocaine-induced motor activity
Experiment: Cocaine-induced behavior and baseline motor activity, same animal system (haloperidol)
Type: in vivo
Conditions: for Effect on baseline motor activity in the absence of cocaine (in words): same animal system as Ex. No. 504, cocaine-free animals
Experimental: Cocaine was administered to mice or rats and its effect in stimulating motor activity was quantified. The cocaine-stimulated motor activity was used to evaluate the effects of the sigma receptor antagonist in reducing this enhanced motor stimulation, i.e., counteracting the pharmacological effect of cocaine in the animal.

SMILES: O=C(CCCN1CCC(O)(c2ccc(Cl)cc2)CC1)c1ccc(F)cc1 [haloperidol]
- Effect on cocaine-induced behavior (in words) (same animal system as Ex. No. 504): did not specifically inhibit cocaine-induced behavior
- Effect on baseline motor activity in the absence of cocaine (in words): significantly depressed baseline motor activity
- Effect on baseline motor activity in the absence of cocaine (in words) (listed as Haloperidol): adverse non-selective attenuation of normal motor activity
